Strand notation (5' to 3'): a small letter for the sugar, then the base; units joined by * are phosphorothioate-linked, units joined directly phosphodiester-linked; [ ] holds rarer units or linkages, { } end groups; capitals alone tell only the bases. d = 2'-deoxy (DNA); m = 2'-O-methyl
What was measured:
EGFR [1] = assay: HEK293-TLR8, 100 nM ASO, then resiquimod
EGFR [2] = assay: HEK293-TLR7, 100 nM ASO, then resiquimod

Substance	TLR8 potentiation (NF-kB luciferase) (fold of resiquimod alone) (EGFR [1])	TLR7 signal (NF-kB luciferase) (% of resiquimod alone) (EGFR [2])
mA*mC*mA*mG*mU*dG*dT*dT*dG*dA*dG*dA*dT*dA*dC*mU*mC*mG*mG*mG	2.73	47.6
mG*mA*mA*mG*mU*dG*dA*dA*dG*dT*dA*dA*dA*dA*dG*mG*mA*mG*mA*mA	0.57	35.6
mU*mU*mU*mU*mU*dG*dA*dA*dG*dT*dG*dT*dT*dT*dA*mA*mU*mA*mU*mU	3.43	59
mG*mU*mA*mG*mA*dG*dA*dA*dA*dT*dT*dA*dT*dT*dT*mU*mA*mG*mG*mA	2.47	34.5
mG*mU*mU*mA*mC*dT*dC*dG*dT*dG*dC*dC*dT*dT*dG*mG*mC*mA*mA*mA	1.17	32.3
mU*mU*mG*mA*mA*dG*dT*dG*dA*dA*dG*dT*dA*dA*dA*mA*mG*mG*mA*mG	0.96	31.8
mA*mA*mA*mA*mG*dG*dA*dG*dA*dA*dA*dA*dC*dT*dA*mU*mC*mU*mU*mC	1.65	47.6
mA*mU*mU*mA*mC*dT*dT*dT*dA*dA*dA*dA*dG*dC*dA*mA*mA*mA*mG*mG	2.17	42.9
mU*mU*mU*mU*mG*dA*dA*dG*dT*dG*dT*dT*dT*dA*dA*mU*mA*mU*mU*mC	4.09	78.9
mG*mG*mU*mG*mU*dC*dC*dT*dT*dG*dC*dA*dC*dG*dT*mG*mG*mC*mU*mU	0.88	72.2
mC*mU*mU*mU*mU*dG*dG*dG*dA*dA*dC*dG*dG*dA*dC*mU*mG*mG*mU*mU	1.91	53.2
mC*mU*mU*mU*mU*dG*dA*dA*dG*dT*dG*dA*dA*dG*dT*mA*mA*mA*mA*mG	1.98	79.8
mG*mG*mC*mA*mU*dC*dC*dA*dC*dC*dA*dC*dG*dT*dC*mG*mU*mC*mC*mA	0.85	34.9
mC*mA*mA*mG*mG*dC*dC*dC*dT*dT*dC*dG*dC*dA*dC*mU*mU*mC*mU*mU	2.42	79.4
mU*mG*mG*mG*mC*dT*dG*dG*dA*dA*dT*dC*dC*dG*dA*mG*mU*mU*mA*mU	1.92	36.1
mC*mG*mG*mC*mA*dT*dC*dC*dA*dC*dC*dA*dC*dG*dT*mC*mG*mU*mC*mC	1.33	56.7
mC*mA*mC*mU*mG*dG*dG*dT*dG*dT*dA*dA*dG*dA*dG*mG*mC*mU*mC*mC	2.44	87.3
mA*mU*mC*mC*mA*dC*dC*dA*dC*dG*dT*dC*dG*dT*dC*mC*mA*mU*mG*mU	1.06	34.7
mG*mU*mG*mU*mC*dC*dT*dT*dG*dC*dA*dC*dG*dT*dG*mG*mC*mU*mU*mC	0.8	28.3
mA*mA*mU*mU*mA*dC*dT*dT*dT*dA*dA*dA*dA*dG*dC*mA*mA*mA*mA*mG	2.07	77.1
mU*mU*mA*mC*mU*dT*dT*dA*dA*dA*dA*dG*dC*dA*dA*mA*mA*mG*mG*mA	2.27	35
mG*mC*mA*mA*mG*dG*dC*dC*dC*dT*dT*dC*dG*dC*dA*mC*mU*mU*mC*mU	2.55	33

— the OligoGym collection
